Test [1] relates to TREM1. Description: Neuroscore after MCAo-RP stroke in mice. Type of test: in vivo. The note with it: 2 days after MCAo-RP; LP17 vs scrambled peptide; n=15-18 per group; ANOVA effect of LP17 p=0.008.
Test [2] has as its system TREM1. Description: FACS quantification of brain myeloid cells after MCAo-RP stroke. Type of test: in vivo, mice. How it is done:
FIG. 12. A representation of the dynamics of immune present at the indicated days after stroke (or the temporal dynamics of immune cell subsets). Stroke was modeled in […] 3 mo male mice using 45 minutes of middle cerebral artery occlusion (MCAo) followed by reperfusion (RP).
These plots show increased CD11b^+/CD45^lo microglia and reduced CD11b^+/CD45^hi macrophages with LP17 treatment.

The mark [3] stands for this setting: 2 days after MCAo-RP, LP17 vs scrambled peptide.

The results in this text go back to US20180318379A1, “INHIBITION OF TRIGGERING RECEPTOR EXPRESSED ON MYELOID CELLS 1 (TREM1) TO TREAT CENTRAL NERVOUS SYSTEM DISORDERS” (The Board of Trustees of the Leland Stanford Junior …, priority 2017, published 2018).

For LQVTDSGLYRCVIYHPP [LP17], the neuroscores entry in the test with TREM1 [1] is “improved”. In the test with TREM1 [2] (setting [3]), the “CD11b+/CD45hi macrophages in stroked hemisphere (FACS)” value is “reduced” and the “CD11b+/CD45lo microglia in stroked hemisphere (FACS)” value is listed as “increased”. Moreover, the “infiltration of macrophages after stroke” value in the test on TREM1 [2] (after MCAo-RP stroke) is reported as “reduces infiltration of macrophages”.
